Test results as given in US20040024033A1 (priority 1998, published 2004).
Read-outs that look alike come from different tables or passages of the source.

Experiments:
[1] = test system: human HCT-15 colon carcinoma; type: in vivo, female BALB/c nude mice; conditions: 4 mg/kg, i.v. once on day 14
Method: (§1) Female or male BALB/c nu/nu (nude) mice are kept under sterile conditions (10 to 12 mice per Type III cage) with free access to food and water. Mice weigh between 20 and 25 grams at the time of tumor implantation. Tumors are established by subcutaneous injection of cells (minimum 2×10^6 cells in 100 μl PBS or medium) in carrier mice (4-8 mice per cell line). The resulting tumors are serially passaged for a minimum of three consecutive transplantations prior to start of treatment. Tumor fragments (approx. 25 mg) are implanted s.c. into the left flank of animals with a 13-gauge trocar needle while the mice are exposed to Forene (Abbott, Switzerland) anesthesia.
(§2) Tumor growth and body weights are monitored once or twice weekly. All treatments are administered intravenously (i.v.) and are initiated when a mean tumor volume of approximately 100 to 250 mm^3 is attained, depending upon the tumor type. Tumor volumes are determined using the formula […] (see Cancer Chemother. Pharmacol. 24:148-154, [1989]). Treatments with epothilone B vary the dose and the frequency of administration. Comparator agents are administered according to previously determined optimal treatment regimens. In addition to presenting changes in tumor volumes over the course of treatment, antitumor activity is expressed as T/C% (mean increase of tumor volumes of treated animals divided by the mean increase of tumor volumes of control animals multiplied by 100). Tumor regression (%) represents the smallest mean tumor volume compared to the mean tumor volume at the start of treatment, according to the formula Regression (%)=(1−Vend/Vstart)×100 (Vend=final mean tumor volume, Vstart=mean tumor volume at the start of treatment. Any animals in which the tumor has reached a size exceeding approximately 1.5 to 2.5 cm^3 are sacrificed. Details can be found below.
Tumor fragments of approximately 25 mg are implanted into the left flank of each female nude mouse (n=8 per group). Treatments are started on day 14 after tumor transplantation. Epothilone B is administered once at 4 mg/kg, i.v. on day 14.5-Fluorouracil is administered at 75 mg/kg, i.v., on days 14 and 21. TAXOL® is administered i.v. at 20 mg/kg/day, every second day for 5 treatments (days 14, 16, 18, 20 and 22). Antitumor activity is expressed as T/C% (mean increase of tumor volumes of treated animals divided by the mean increase of tumor volumes of control animals multiplied by 100). Tumor regression (%) represents the final mean tumor volume compares to the mean tumor volume at the start of treatment. Δ Tumor volumes represent the tumor volume on the last treatment day minus the tumor volume on the first treatment day. Statistical analyses on Δ tumor volumes uses Dunnett's test to compare treatment groups to controls. Statistical analyses on body weight changes uses paired t-tests comparing body weights before treatment to those at the end of treatment; mice weigh ˜20-25 g at the start of treatment. Not significant is indicated by the abbreviation ,ns”. Data presented are means±SEM from animals surviving to the end of the experiment.

[2] = test system: human COLO 205 colon tumors; type: in vivo, female BALB/c nude mice; conditions: 4 mg/kg, day 32
Method: as §1, §2
Tumor fragments of approximately 25 mg are implanted into the left flank of each female nude mouse (n=7 per group); a subcutaneous estrogen pellet is placed on the opposite flank. Treatments are started on day 14 after tumor transplantation. epothilone B is administered at 4 mg/kg, i.v., either once or once per week (days 14, 21, 28) or every second week (days 14 and 28). 5-fluorouracil is administered i.v. at 75 mg/kg on days 14, 21, 28. Data presented are from animals surviving to day 32, four days after the last treatments. Antitumor activity is expressed as T/C% (mean increase of tumor volumes of treated animals divided by the mean increase of tumor volumes of control animals multiplied by 100). Tumor regression (%) represents the final mean tumor volume compared to the mean tumor volume at the start of treatment. Changes (A) in tumor volumes represent the tumor volume on the last treatment day minus the tumor volume on the first treatment day.

[3] = Determination of the single i.v. dose MTD in normal mice; type: in vivo, normal female BALB/c mice; conditions: for Body Weight Δ: mean ± SD
Method: For the MTD determination, female BALB/c nude mice or BALB/c mice (obtained from Novartis Animal Farm, Sisseln, Switzerland) are treated once intravenously with epothilone B (n=3 per dose group). The dosage is increased (2, 4, 6, 8, 10 and 12 mg/kg) and the mice are observed for the presentation of overt toxic effects for 10 days after drug treatment.
Epothilone B is given as a single i.v. bolus dose at 2, 4, 6, 8, 10 or 12 mg/kg. Survival and body weights of the mice are monitored daily. Changes (Δ) in body weights are determined comparing the last measured body weight to that before treatment.

[4] = test system: human KB-8511 epidermoid carcinoma; type: in vivo, female BALB/c nude mice
Method: as §1, §2
Tumor fragments of approximately 25 mg are implanted into the left flank of each female nude mouse (n=8 per group). Treatments are started on day 13 after tumor transplantation. epothilone B is administered once at 4 mg/kg, i.v. on day 13, or once per week at 4, 2 or 1 mg/kg, i.v., (on days 13, […] and 27). TAXOL® is administered i.v. at 20 mg/kg/day, every second day for 5 treatments (days 13, 15, 17, 19 and 21). Antitumor activity is expressed as T/C% (mean increase of tumor volumes of treated animals divided by the mean increase of tumor volumes of control animals multiplied by 100). Tumor regression (%) represents the final mean tumor volume compared to the mean tumor volume at the start of treatment. Changes (Δ) in Tumor volumes represent the tumor volume on the last treatment day minus the tumor volume on the first treatment day. Statistical analyses on Δ tumor volumes uses Dunnett's test to compare treatment groups to controls. […]

[5] = Experiment 1, 6 mg/kg single i.v. bolus
[6] = Experiment 1, 8 mg/kg single i.v. bolus
[7] = Experiment 1, 10 mg/kg single i.v. bolus
[8] = Experiment 1, 12 mg/kg single i.v. bolus
[9] = Experiment 2, 2 mg/kg single i.v. bolus
[10] = Experiment 2, 4 mg/kg single i.v. bolus
[11] = Experiment 2, 6 mg/kg single i.v. bolus
[12] = Experiment 2, 8 mg/kg single i.v. bolus

Compound: C/C(=C\c1csc(C)n1)[C@@H]1C[C@@H]2O[C@]2(C)CCC[C@H](C)[C@H](O)[C@@H](C)C(=O)C(C)(C)[C@@H](O)CC(=O)O1 [epothilone B]
- % Body Weight Change [1]: 2 ± 2%
- Mortalities due to treatment [1]: No mortalities
- T/C [1]: Regres-
- D Body Weight ([1]; mean ± SEM): 0.4 ± 0.3 g
- T/C ([2]; i.v. every 7 days): Regres-
- T/C ([2]; i.v. every 14 days): Regres-
- T/C ([2]; i.v. once): Regres-
- Mortalities [3, 5]: 1/3
- Body Weight Δ [3, 5]: -6.1 ± 0.9 g
- Mortalities [3, 6]: 3/3
- Body Weight Δ [3, 6]: -5.1 ± 3.2 g
- Mortalities [3, 7]: 3/3
- Body Weight Δ [3, 7]: -5.6 ± 0.6 g
- Mortalities [3, 8]: 3/3
- Body Weight Δ [3, 8]: -5.4 ± 2.9 g
- Mortalities [3, 9]: 0/3
- Body Weight Δ [3, 9]: 2.3 ± 0.6 g
- Mortalities [3, 10]: 0/3
- Body Weight Δ [3, 10]: 1.3 ± 0.6 g
- Mortalities [3, 11]: 2/3
- Body Weight Δ [3, 11]: -5.3 ± 0.6 g
- Mortalities [3, 12]: 3/3
- Body Weight Δ [3, 12]: -5.0 ± 1.0 g
- mice with undetectable tumors at the end of the experiment ([4]; 2 mg/kg/week): 1/8
- % Body Weight Change ([4]; 4 mg/kg, i.v. once per week): −5±7%
- T/C ([4]; 4 mg/kg, i.v. once per week): Regres-
- mice with undetectable tumors at the end of the experiment ([4]; 4 mg/kg/week): 5/8
